Test results: patent US11752150B2, “Anti-tumor immunotherapy enhancer” (Nobuo Tsukamoto, priority 2017, dated 2023)

Test system: mouse cancer cells MCA205 IDO1WT
Assay: Tumor volume in C57BL/6 mice implanted with MCA205 IDO1WT cells (1-MT and Y15)
Assay type: in vivo
Settings: MCA205 IDO1WT in C57BL/6; Y15 600 μg/animal i.p. once a day from Day 5; 1-MT 4 mg/mL in drinking water from Day 5; n=5; FIG. 23
Description: On Day 0, 5×10^5 mouse cancer cells MCA205 IDO1WT expressing the wild-type mouse IDO1 gene were implanted into the ventral side of C57BL/6 mice.
The FAK inhibitor Y15 (MedChem Express) was dissolved in PBS and administered intraperitoneally once a day from Day 5 at 600 μg/100 μl/animal. In the control group, PBS was intraperitoneally administered at 100 μl/animal once a day from Day 5.
The major axis and minor axis of the tumor were measured every two days. The tumor volume was calculated as 0.5×(major axis)×(minor axis)^2.

For Cl.Cl.Cl.Cl.Nc1cc(N)c(N)cc1N [Y15, 1,2,4,5-benzenetetraamine tetrahydrochloride], the tumor volume was “a smaller tumor was formed as compared with the group to which neither drug was administered”.
